Data as given in patent publication US8106004B2, “Methods of inhibiting tumor cell aggressiveness using the microenvironment of human embryonic stem cells” (Children's Memorial Hospital, priority 2006, dated 2012).

Tested on: C8161 human cutaneous melanoma cells
Assay: In vivo tumor formation, orthotopic mouse model, C8161 melanoma cells
Details: for tumorigenicity / tumor formation: 250,000 C8161 cells treated with Morpholino before subcutaneous injection, n=5, p<0.05
Procedure: A microenvironment of human embryonic stem cells (H9 CMTX) was prepared as described above. C8161 human cutaneous melanoma cells were exposed to the H9 CMTX or Matrigel for 3 to 4 days prior to transplantation in a mouse model. Nude immunocompromised mice received an injection of the C8161 cells subcutaneously into the midscapular region (to mimic spontaneous metastatic dissemination found in human cancers). The animals were injected using a 25 or 27-gauge needle with 2.5×10^5 tumor cells/mouse in 0.05 ml RPMI media.
As a corollary to these findings, an orthotopic mouse model was used to examine the effect of Nodal inhibition on melanoma tumor formation. For the experimental tumourigenesis model, 5 week old nude mice (Harlan, Madison, Wis.) were injected subcutaneously with 250,000 C8161 cells, treated with control or anti-Nodal Morpholinos, in 50 μL of complete RPMI. Tumor measurements were taken on days 3, 7, 14 and 17 post-injection, and mice were sacrificed on day 17. For the orthotopic mouse tumor formation studies, statistical significance was determined using the Kruskal-Wallis One Way Analysis of Variance on Ranks, followed by Dunn's method.
The derivation and phenotypic characteristics of the human melanoma cell lines have been previously described. Seftor, et. al., 2002, Clin. Experim. Metastas. 19:233-246; Seftor, et. al., 2005 Cancer Res. 65:10164-10169. The melanoma cell lines are maintained in RPMI 1640 medium (Invitrogen) supplemented with 10% fetal bovine serum (FBS, Gemini Bioproducts) and 0.1% gentamycin sulfate with the exception of C81-61 cells which are maintained in Ham's FIO medium supplemented with 15% FBS, 1X Mito+ (BD Bioscience) and gentamycin sulfate. Normal human melanocytes are purchased (Cascade Biologics) or isolated from neonatal foreskins. Seftor, et. al., 2005. A single cell suspension is prepared, added to plastic flasks for the adherence of melanocytes and the cells propagated in Medium 254 with Human Melanocyte Growth Supplement (Cascade Biologics) including, 100 units/ml penicillin, 100 μg/ml streptomycin, and 250 ng/mL amphotericin B. The human embryonic stem cell lines are cultured as previously described. Thomson, et. al., 1998, Science 282:1145-1147. Briefly, cells are grown in 6-well plates precoated with 0.1% porcine gelatin and containing 1.9×10^5 irradiated mouse embryonic fibroblasts (strain CF-1; ATCC) per well. The cells are maintained in medium containing DMEM/F12 (1:1), 20% knock-out serum replacement, non-essential minimal amino acids, L-glutamine (Invitrogen), […], and 4 ng/ml FGF-2 (R&D Systems), and are split with collagenase (1 mg/ml) before the colonies begin to overlap. The cultures are determined to be free of mycoplasma contamination using a PCR-based assay (Roche). […]

[1] = 250,000 C8161 cells treated with anti-Nodal Morpholino before injection

**Q.** Which “tumorigenicity / tumor formation” value (listed as MO Nodal) does the source give for “MO^Nodal: FITC-conjugated anti-sense Morpholino to Nodal, 5′-AAGCAGCACCTCCAGCCCTTATATC-3′ [SEQ ID NO: 20] (all phosphorodiamidate morpholino (PMO); FITC conjugated, position not given here)” here?
**A.** reduction in tumor formation

**Q.** And the “tumorigenicity / tumor formation” value (listed as MONodal)?
**A.** significant reduction

**Q.** And the “diminution of tumor incidence” value [1]?
**A.** 30%

**Q.** What about the tumor growth [1] of the same substance?
**A.** decrease
